Assay results: US8653138B2, “Calcium salts of compounds as anti-inflammatory, immunomodulatory and anti-proliferatory agents” (4SC MG, priority 2010, dated 2014)

Molecular target: T1, recombinant human DHODH (Homo sapiens, UniProt Q02127)
T1 construct: provided by Prof; M. Löffler, Marburg, Germany (gift, not a commercial vendor)
Test: Inhibition assay of DHODH activity, human enzyme
Type: biochemical
Conditions: class symbol (head prints μM, key in nM)
Experimental: The standard assay mixture contained 50 μM decyclo ubichinone, 100 μM dihydroorotate, 60 μM 2,6-dichloroindophenol, as well as 20 mU DHODH. The volume activity of the recombinant enzyme used was 30 U/ml. Measurements were conducted in 50 mM TrisHCl (150 mM KCl, 0.1% Triton X-100, pH 8.0) at 30° C. in a final volume of 1 ml. The components were mixed, and the reaction was started by adding dihydroorotate. The course of reaction was followed by spectrophotometrically measuring the decrease in absorption at 600 nm for 2 min.
Inhibitory studies were conducted in a standard assay with additional variable amounts of inhibitor.
These investigations were carried out with recombinant human as well as with recombinant murine DHODH provided by Prof. M. Löffler, Marburg, Germany [M. Löffler, Chem. Biol. Interact.

T1 sequence (Q02127 whole entry): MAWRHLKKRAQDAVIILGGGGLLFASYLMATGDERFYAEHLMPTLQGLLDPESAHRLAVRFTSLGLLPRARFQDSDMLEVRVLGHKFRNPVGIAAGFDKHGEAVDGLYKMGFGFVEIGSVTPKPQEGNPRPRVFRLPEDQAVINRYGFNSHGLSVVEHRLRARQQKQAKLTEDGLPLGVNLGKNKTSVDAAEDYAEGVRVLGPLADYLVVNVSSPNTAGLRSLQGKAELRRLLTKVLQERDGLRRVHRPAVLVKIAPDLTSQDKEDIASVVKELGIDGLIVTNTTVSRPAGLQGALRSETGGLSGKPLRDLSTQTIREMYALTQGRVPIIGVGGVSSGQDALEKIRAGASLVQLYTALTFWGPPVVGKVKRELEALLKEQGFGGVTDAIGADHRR

O=C(O)C1=C(C(=O)Nc2ccc(-c3cc4ccccc4s3)cc2F)CCC1 [Compound 45, 2-((4-(benzo[b]thiophen-2-yl)-2-fluorophenyl)carbamoyl)cyclopent-1-enecarboxylic acid]
IC50: < 0.8 µM

COc1ccc(-c2cc(F)c(NC(=O)C3=C(C(=O)O)CCC3)c(F)c2)c(OC)c1 [Compound 67, 2-((3,5-difluoro-2′,4′-dimethoxy-[1,1′-biphenyl]-4-yl)carbamoyl)cyclopent-1-enecarboxylic acid]
IC50: < 0.8 µM

CCOc1ccccc1-c1ccc(NC(=O)C2=C(C(=O)O)CCC2)c(F)c1 [Compound 17, 2-((2′-ethoxy-3-fluoro-[1,1′-biphenyl]-4-yl)carbamoyl)cyclopent-1-enecarboxylic acid]
IC50: < 0.8 µM

COc1cccc(-c2ccc(NC(=O)C3=C(C(=O)O)CCC3)c(OC)c2)c1 [Compound 39, 2-((3,3′-dimethoxy-[1,1′-biphenyl]-4-yl)carbamoyl)cyclopent-1-enecarboxylic acid]
IC50: < 0.8 µM

Cc1cc(-c2cc(F)c(NC(=O)C3=C(C(=O)O)CCC3)c(F)c2)ccc1F [Compound 30, 2-((3,4′,5-trifluoro-3′-methyl-[1,1′-biphenyl]-4-yl)carbamoyl)cyclopent-1-enecarboxylic acid]
IC50: < 0.8 µM

O=C(O)C1=C(C(=O)Nc2ccc(-c3ccccc3F)cc2)CCC1 [Compound 13, 2-((2′-fluoro-[1,1′-biphenyl]-4-yl)carbamoyl)cyclopent-1-enecarboxylic acid]
IC50: < 0.8 µM

COc1ccc(-c2ccc(NC(=O)C3=C(C(=O)O)CCC3)cc2Cl)cc1 [Compound 19, 2-((2-chloro-4′-methoxy-[1,1′-biphenyl]-4-yl)carbamoyl)cyclopent-1-enecarboxylic acid]
IC50: < 0.8 µM

O=C(O)C1=C(C(=O)Nc2ccc(-c3ccccc3Cl)cc2)CCC1 [Compound 14, 2-((2′-chloro-[1,1′-biphenyl]-4-yl)carbamoyl)cyclopent-1-enecarboxylic acid]
IC50: < 0.8 µM

COc1ccccc1-c1ccc(NC(=O)C2=C(C(=O)O)CCC2)cc1 [Compound 15, 2-((2′-methoxy-[1,1′-biphenyl]-4-yl)carbamoyl)cyclopent-1-enecarboxylic acid]
IC50: < 0.8 µM

COc1ccc(-c2ccc(NC(=O)C3=C(C(=O)O)CCC3)cc2Cl)cn1 [Compound 22, 2-((3-chloro-4-(6-methoxypyridin-3-yl)phenyl)carbamoyl)cyclopent-1-enecarboxylic acid]
IC50: < 0.8 µM

O=C(O)C1=C(C(=O)Nc2ccc(OCc3ccccc3F)c(Cl)c2)CCC1 [Compound 74, 2-((3-chloro-4-((2-fluorobenzyl)oxy)phenyl)carbamoyl)cyclopent-1-enecarboxylic acid]
IC50: < 0.8 µM

O=C(O)C1=C(C(=O)Nc2ccc(Oc3ccccc3)cc2)CCC1 [Compound 50, 2-((4-phenoxyphenyl)carbamoyl)cyclopent-1-enecarboxylic acid]
IC50: < 0.8 µM

COc1ccccc1-c1cc(Cl)c(NC(=O)C2=C(C(=O)O)CCC2)c(Cl)c1 [Compound 58, 2-((3,5-dichloro-2′-methoxy-[1,1′-biphenyl]-4-yl)carbamoyl)cyclopent-1-enecarboxylic acid]
IC50: < 0.8 µM

COc1cc(-c2ccccc2)ccc1NC(=O)C1=C(C(=O)O)CCC1 [Compound 33, 2-((3-methoxy-[1,1′-biphenyl]-4-yl)carbamoyl)cyclopent-1-enecarboxylic acid]
IC50: < 0.8 µM

COc1ccc(-c2ccc(NC(=O)C3=C(C(=O)O)CCC3)c(OC)c2)c(OC)c1 [Compound 37, 2-((2′,3,4′-trimethoxy-[1,1′-biphenyl]-4-yl)carbamoyl)cyclopent-1-enecarboxylic acid]
IC50: < 0.8 µM

O=C(O)C1=C(C(=O)Nc2ccc(OCc3ccccc3)c(Cl)c2)CCC1 [Compound 72]
IC50: < 0.8 µM

O=C(O)C1=C(C(=O)Nc2ccc(-c3cccc(F)c3)cc2F)CCC1 [Compound 27, 2-((3,3′-difluoro-[1,1′-biphenyl]-4-yl)carbamoyl)cyclopent-1-enecarboxylic acid]
IC50: < 0.8 µM

COc1cc(-c2ccccc2Cl)ccc1NC(=O)C1=C(C(=O)O)CCC1 [Compound 34, 2-((2′-chloro-3-methoxy-[1,1′-biphenyl]-4-yl)carbamoyl)cyclopent-1-enecarboxylic acid]
IC50: < 0.8 µM

O=C(O)C1=C(C(=O)Nc2cc(Br)c(OCc3ccccc3)c(Br)c2)CSC1 [Compound 29, 4-((4-(benzyloxy)-3,5-dibromophenyl)carbamoyl)-2,5-dihydrothiophene-3-carboxylic acid]
IC50: < 0.8 µM

O=C(O)C1=C(C(=O)Nc2ccc(-c3cc4ccccc4s3)cc2)CCC1 [Compound 44, 2-((4-(benzo[b]thiophen-2-yl)phenyl)carbamoyl)cyclopent-1-enecarboxylic acid]
IC50: < 0.8 µM

CCOc1cccc(-c2ccc(NC(=O)C3=C(C(=O)O)CCC3)c(OC)c2)c1 [Compound 38, 2-((3′-ethoxy-3-methoxy-[1,1′-biphenyl]-4-yl)carbamoyl)cyclopent-1-enecarboxylic acid]
IC50: < 0.8 µM

COc1ccccc1-c1ccc(NC(=O)C2=C(C(=O)O)CCC2)cc1Cl [Compound 54, 2-((2-chloro-2′-methoxy-[1,1′-biphenyl]-4-yl)carbamoyl)cyclopent-1-enecarboxylic acid]
IC50: < 0.8 µM

COc1ccccc1-c1ccc(NC(=O)C2=C(C(=O)O)CCC2)c([N+](=O)[O-])c1 [Compound 32, 2-((2′-methoxy-3-nitro-[1,1′-biphenyl]-4-yl)carbamoyl)cyclopent-1-enecarboxylic acid]
IC50: < 0.8 µM

O=C(O)C1=C(C(=O)Nc2ccc(OCc3c(F)cccc3F)cc2)CCC1 [Compound 16, 2-((4-((2,6-difluorobenzyl)oxy)phenyl)carbamoyl)cyclopent-1-enecarboxylic acid]
IC50: < 0.8 µM

O=C(O)C1=C(C(=O)Nc2c(F)cc(-c3ccccc3Cl)cc2F)CCC1 [Compound 65, 2-((2′-chloro-3,5-difluoro-[1,1′-biphenyl]-4-yl)carbamoyl)cyclopent-1-enecarboxylic acid]
IC50: < 0.8 µM

O=C(O)C1=C(C(=O)Nc2cc(Br)c(OCc3cc(F)ccc3F)c(Br)c2)CCC1 [Compound 24]
IC50: < 0.8 µM

O=C(O)C1=C(C(=O)Nc2ccc(-c3ccccc3Cl)cc2)CSC1 [Compound 41, 4-((2′-chloro-[1,1′-biphenyl]-4-yl)carbamoyl)-2,5-dihydrothiophene-3-carboxylic acid]
IC50: < 0.8 µM

O=C(O)C1=C(C(=O)Nc2c(F)cc(-c3cccc(OC(F)(F)F)c3)cc2F)CCC1 [Compound 64, 2-((3,5-difluoro-3′-(trifluoromethoxy)-[1,1′-biphenyl]-4-yl)carbamoyl)cyclopent-1-enecarboxylic acid]
IC50: < 0.8 µM

O=C(O)C1=C(C(=O)Nc2c(F)cc(-c3ccccc3F)cc2F)CCC1 [Compound 66, 2-((2′,3,5-trifluoro-[1,1′-biphenyl]-4-yl)carbamoyl)cyclopent-1-enecarboxylic acid]
IC50: < 0.8 µM

COc1ccccc1-c1c(F)c(F)c(NC(=O)C2=C(C(=O)O)CCC2)c(F)c1F [Compound 56, 2-((2,3,5,6-tetrafluoro-2′-methoxy-[1,1′-biphenyl]-4-yl)carbamoyl)cyclopent-1-enecarboxylic acid]
IC50: < 0.8 µM

COc1ccccc1-c1ccc(OC(=O)C2=C(C(=O)O)CCC2)c(F)c1 [Compound 76]
IC50: < 0.8 µM
